Structures are written as SMILES. Values joined by “and” are separate entries in the source; they are usually repeats but may differ in a detail not shown here. Identical values can stand only once. Bounds are passed on as bounds.

The target of this assay is Transforming acidic coiled-coil-containing protein 3 (Homo sapiens) (UniProt Q9Y6A5). Put plainly: inhibition of ARNT PAS-B/TACC3 complex formation – biochemical, AlphaScreen, cherry-picked samples, confirmation (AID 651703).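 Further: TACC3 partner is the GST-tagged E629A mutant dimer; hits lower the signal meaning they disrupt ARNT binding to TACC3.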 To be noted: AlphaScreen His-ARNT PAS-B / GST-TACC3 binding, luminescence.
In the case of `Oc1ccc(Cn2ccnc2)c2cccnc12`, the AC50 is less than 0.5 µM. For `Brc1ccc(-c2nn3c(-c4ccccn4)nnc3s2)o1` the value was 9.12 µM. Regarding `O=C(N[C@H]1CC[C@@H](CCn2cc(-c3ccccn3)nn2)O[C@H]1CO)c1cccnc1`, the AC50 was 8.65 µM. As for `O=C(CSc1n[nH]c(-c2ccccn2)n1)Nc1ccc(F)cc1`, the AC50 was 1.09 µM. For the compound `Cn1nc(-c2ccccn2)nc2c(=O)n(C)c(=O)nc1-2`, the AC50 was less than 0.5 µM. The figure for `Nc1nc(CN2CCCCCC2)nc(Nc2ccccc2)n1` is 59 µM; for `Cc1ccc(C(=O)Nc2nc(-c3ccccn3)cs2)cc1S(=O)(=O)N1CCOCC1` it is 2.37 µM.

Consider `O=S(=O)(N[C@H]1CC[C@H](CCn2cc(-c3ccccn3)nn2)O[C@@H]1CO)c1cccc(F)c1`, for which the AC50 is 10.7 µM. The figure for `C[C@@H]1CN([C@H](C)CO)C(=O)Cc2cc(N(C)C)ccc2O[C@H]1CN(C)Cc1ccc(Oc2ccccc2)cc1` is 27.5 µM; for `C=CCn1c(CNc2ccccc2)nnc1SCC(=O)N/N=C/c1ccc(O)cc1O` it is 25.1 µM. Take `Oc1cccc2c(-c3nn[nH]n3)ccnc12`: the AC50 was 2.14 µM. The figure for `O=c1cc(C(F)(F)F)nc(-n2[nH]c3c(c2=O)CCCC3)[nH]1` is 28 µM.

For `O=C(N[C@@H]1CC[C@@H](CCn2cc(-c3ccccn3)nn2)O[C@@H]1CO)c1cccnc1`, the AC50 was 13.1 µM. For `Cc1ccc(Nc2c(-c3ccccn3)nc3cccc(C)n23)cc1` the value was 3.62 µM; for `N#CCC(=O)N/N=C\c1ccccc1OC/C=C/c1ccccc1`, 6.51 µM. Regarding `O=C(Nc1nnc(-c2ccc(F)cc2)o1)c1ccco1`, the AC50 was 37 µM. Consider `CCCC(=O)NC(c1cccs1)c1cc([N+](=O)[O-])c2cccnc2c1O` (stereo not drawn), for which the AC50 was 3.51 µM. For the compound `Oc1c(C(c2ccccn2)N2CCCCC2)cc(Cl)c2cccnc12` (stereo not drawn), the concentration at half-maximal activity (AC50) was 1.33 µM. For `O=C(NNc1ccccn1)C(=O)NNS(=O)(=O)c1ccc(Cl)cc1` the value was 15.6 µM; for `O=C(N/N=C/c1cccc2nccnc12)c1ccccc1O`, 4.77 µM; for `CC(=O)/C(=N\Nc1ccc(Cl)cc1Cl)Sc1cccc2cccnc12`, 2.95 µM. The figure for `c1ccc(-c2cccc(CNc3nc(-c4ccccn4)nnc3-c3ccccc3)c2)cc1` is 2.28 µM; for `c1ccc(C2=Nn3c(nnc3-c3ccccn3)SC2)cc1` it is 64.9 µM. Consider `O=C(NCCCn1ccnc1)Nc1ccc(Cl)c(Cl)c1`, for which the AC50 was 25.2 µM. For `O=C(Oc1c(CN2CCOCC2)cc(Cl)c2cccnc12)c1cccs1` the value was 15.2 µM; for `Cc1cccc(NC(=O)CSc2cccc3cccnc23)c1C`, 33.7 µM.

Consider `Cc1c(C(=O)N(C)C)sc2nc(-c3ccccn3)[nH]c(=O)c12`, for which the AC50 is 2.78 µM. For `O=C(Nc1nnc(C2=COCCO2)o1)c1ccc(Cl)cc1` the value was 17.7 µM; for `CN(C)CCCNc1cc(O)c2ncccc2c1`, 0.583 µM; for `O=C(NCCCn1ccnc1)C(=O)NCC1OCCN1S(=O)(=O)c1ccc2c(c1)OCCO2` (stereo not drawn), 13.2 µM. For `Cc1cccc(S(=O)(=O)N[C@H]2CC[C@H](CCn3cc(-c4ccccn4)nn3)O[C@H]2CO)c1` the value was 18.5 µM; for `CCOc1ccc(C2=Nn3c(nnc3-c3ccccn3)SC2)cc1`, 20.4 µM; for `O=S1(=O)N=C(N(CCO)/N=C/C=C/c2ccccc2)c2ccccc21`, 53.9 µM.

`O=C(CCS(=O)(=O)c1ccc(F)cc1)Nc1nc(-c2ccccn2)cs1`: the AC50 is 6.22 µM. The figure for `CC(C)(C)C1=Nn2c(nnc2-c2ccccn2)SC1` is 6.44 µM. The figure for `COc1cc([N+](=O)[O-])cc(/C=N/NC(=O)Cn2cncn2)c1O` is 5.87 µM; for `O=C(Nc1nc(-c2ccccn2)cs1)C1COc2ccccc2O1` (stereo not drawn) it is 5.46 µM. Regarding `Cc1ccc(C(=O)Nc2nc(-c3ccccn3)cs2)s1`, the AC50 is 4.78 µM. For `Cc1ccccc1NC(=O)CSc1ccc(-c2ccccn2)nn1`, the AC50 was 3.47 µM. For `c1ccc(-c2nnc(-c3ccccn3)nc2N2CCN(c3ccncc3)CC2)cc1` the value was less than 0.5 µM; for `COc1cc(CNCc2ccccn2)ccc1OCC(=O)NC(C)(C)C`, 26.4 µM; for `O=C(CSc1ccc(-c2ccccn2)nn1)NC1CCCC1`, 2.64 µM. In the case of `O=S(=O)(N[C@@H]1CCCN(Cc2ccc(OCCO)cc2)C1)c1cccc2cccnc12`, the AC50 is 16.2 µM. Consider `COc1ccc(NC(=O)N[C@H]2CC[C@@H](CCn3cc(-c4ccccn4)nn3)O[C@@H]2CO)cc1`, for which the AC50 is 13.3 µM. The figure for `Cc1ccc(NC(=O)CSc2ccc(-c3ccccn3)nn2)cc1F` is 3.98 µM. `O=C(Nc1nccs1)c1cnccn1`: the AC50 is 63.9 µM.

As for `CCOc1cc(N2CCOCC2)c(OCC)cc1NC(=O)COc1cccc2cccnc12`, the AC50 is 20.3 µM.

For the compound `c1ccc(-c2csc(Nc3nc(-c4ccccn4)nnc3-c3ccccc3)n2)cc1`, the AC50 is 0.897 µM. `O=C(N/N=C/c1cc(Br)ccc1O)C(c1ccncc1)N1CCOCC1` (stereo not drawn): the AC50 is 13.4 µM. `O=C(O)c1cn[nH]c1-n1cnnn1`: the AC50 was 40.6 µM. For `O=C(CSc1cccc2cccnc12)Nc1cc(C(=O)O)cc(C(=O)O)c1` the value was 17.9 µM; for `O=S(=O)(N[C@@H]1CC[C@H](CCn2cc(-c3ccccn3)nn2)O[C@@H]1CO)c1cccc(F)c1`, 29.1 µM. The figure for `O=C(Cn1cnc([N+](=O)[O-])n1)N/N=C/c1ccc(O)cc1O` is 4.97 µM; for `CCOc1cc(CNCc2ccccn2)cc(Cl)c1OCC` it is 45 µM. With `CC(C)(C)CCNc1nc(-c2ccccn2)nnc1-c1ccccc1`, the AC50 was 0.717 µM and < 0.5 µM. Turning to `O=C(CCS(=O)(=O)c1ccccc1)Nc1nc(-c2ccccn2)cs1`, the AC50 was 11.2 µM. On to `O=C(Nc1nc(-c2ccccn2)cs1)c1cc(S(=O)(=O)N2CCOCC2)ccc1F`, for which the AC50 is 4.43 µM. Turning to `Cc1cc(NC(c2cccnc2)c2ccc3cccnc3c2O)no1` (stereo not drawn), the AC50 is 1.02 µM. Take `O=C(CSc1cccc2cccnc12)N1CCCC1`: the AC50 was 3.28 µM.

For `C=CCn1c(Cc2csc(N)n2)nnc1SCC(=O)Nc1ccc(C(=O)OCC)cc1`, the AC50 was 14.1 µM. As for `O=C(CSc1cccc2cccnc12)Nc1ccccc1F`, the AC50 was 19.5 µM. For `CCc1ccc2c(c1)C1(NN=C(c3ccc(C)cc3)S1)C(=O)N2` (stereo not drawn) the value was 1.52 µM. As to `COc1cccc(/C=N/NC(=O)c2ccc3nc[nH]c3c2)c1O`, the AC50 is 23.3 µM.

In the case of `COc1ccc(NC(=O)CSc2n[nH]c(-c3ccccn3)n2)cc1`, the AC50 was 0.963 µM. On to `COc1ccc(NC(=O)CSc2nnc(-c3ccccn3)n2N)cc1`, for which the AC50 was 13.2 µM.

In the case of `COc1cc(CCNC2=CC(=O)c3ncccc3C2=O)ccc1O`, the AC50 is 34.8 µM. As to `C[C@@H]1CCCCO[C@@H](CN(C)C(=O)Nc2cccc3ccccc23)[C@H](C)CN([C@@H](C)CO)C(=O)c2cc(NS(=O)(=O)c3cn(C)cn3)ccc2O1`, the AC50 was 56.4 µM. For `COc1ccccc1-c1nnc(NC(=O)c2cccc(N3C(=O)CCC3=O)c2)o1` the value was 29 µM. The figure for `O=S(=O)(N[C@H]1CC[C@@H](CCn2cc(-c3ccccn3)nn2)O[C@@H]1CO)c1cccc(F)c1` is 10.9 µM.

Regarding `COc1ccc(CCNC(=O)CSc2nnc3ccc(-c4ccccn4)nn23)cc1`, the AC50 is 33.5 µM.

In the case of `O=c1[nH]c(-c2ccccn2)nc2ccccc12`, the AC50 was 7.86 µM.

As for `CN1CCc2c(sc3c2C(=O)NC(c2ccccn2)N3)C1` (stereo not drawn), the AC50 was 5.51 µM. Take `O=C(N/N=C\c1cccc([N+](=O)[O-])c1O)C1COc2ccccc2O1` (stereo not drawn): the AC50 was 14.7 µM.

As for `CCOc1ccccc1NC(=O)CN(c1ccc(OC)cc1)S(=O)(=O)c1c(C)[nH]c(=O)[nH]c1=O`, the AC50 was 10.5 µM. For `COc1ccc(NC(=O)N[C@@H]2CC[C@H](CCn3cc(-c4ccccn4)nn3)O[C@H]2CO)cc1` the value was 12.7 µM; for `C=CCNc1nc(-c2ccccn2)nnc1-c1ccccc1`, less than 0.5 µM; for `C(=N\Nc1ccc2nncn2n1)/c1ccccn1`, 14 µM. The figure for `CCN(CCCl)c1cc(CN(C)C)cc(NC(=O)c2ccc(C(=O)Nc3cc(CN(C)C)cc(N(CC)CCCl)c3)cc2)c1` is 1.92 µM; for `Cc1nnc(SCC(=O)Nc2nnc(-c3ccccc3)o2)s1` it is 16.4 µM. On to `Oc1ccc(CNC2CCc3ccccc32)c2cccnc12` (stereo not drawn), for which the AC50 is 1.22 µM. For `Cc1cc(C)c2nc(C)cc(N/N=C/c3ccc(O)cc3)c2c1` the value was 37.3 µM.

With `O=C(O)CCNc1cc(N2CCN(C(=O)c3ccco3)CC2)c2noc3c2c1C(=O)c1ccccc1-3`, the AC50 is 14.9 µM. The figure for `COc1cc(CNCc2ccccn2)ccc1OCc1ccc(Cl)cc1Cl` is 36.6 µM; for `O=C(CNCc1ccccn1)N1CCc2ccccc2C1` it is 3.23 µM. In the case of `Nc1nc(CN2CCN(Cc3ccccc3)CC2)nc(Nc2ccc3c(c2)OCCO3)n1`, the AC50 is 65.8 µM.

As to `COc1cc(C2C(C#N)=C(N)Oc3n[nH]c(-c4ccccn4)c32)cc(OC)c1OC` (stereo not drawn), the AC50 is 19.7 µM. For `C/C=C/c1ccc([C@H]2[C@@H](CNC(=O)CC)N(Cc3ccccn3)[C@H]2CO)cc1` the value was 45 µM. On to `Cc1ccccc1C(=O)Nc1cccc(C(=O)N/N=C/c2cc(Cl)cc([N+](=O)[O-])c2O)c1`, for which the AC50 was 40 µM. As to `c1ccc(-c2cnc(-c3ccccn3)nn2)cc1`, the AC50 was 3.23 µM. The figure for `COc1cc2c(cc1OC)-c1c3c(cc4c1[C@@H](C2)N(C)CC4)OCO3` is 17.6 µM; for `CS(=O)(=O)c1cccc(C(=O)Nc2nnc(C3=COCCO3)o2)c1` it is 45.6 µM; for `O=C(NC12CC3CC(CC(C3)C1)C2)c1ccc(-c2ccccc2Cl)o1` it is 51 µM.

As for `O=C(NC[C@@H]1[C@H](c2ccccc2)[C@H](CO)N1Cc1ccccn1)C1CCCC1`, the AC50 was 40.7 µM. Regarding `O=C(CSc1ccc2nnc(-c3ccccn3)n2n1)Nc1ccc2c(c1)OCO2`, the AC50 was 46.5 µM. As for `O=C(CSc1ccc(-c2ccccn2)nn1)NC1CCCCC1`, the AC50 was 2.56 µM.

With `Cc1ccccc1-n1c(O)c(/C=N/NC(=O)c2ccncc2)c(=O)[nH]c1=O`, the AC50 is 11.5 µM. The figure for `Cc1ccc(C)c(NC(=O)CSc2n[nH]c(-c3ccccn3)n2)c1` is 0.574 µM. The figure for `Oc1ccc(CN2CCC3CCCCC3C2)c2cccnc12` (stereo not drawn) is 1.22 µM.

The values are drawn from PubChem BioAssay AID651703 (Broad Institute, 2012).
